Target: T1, human TLR8 (Homo sapiens, UniProt Q9NR97)
T1 construct: host or cells: HEK293 (HEK-Blue hTLR8)
T1 sequence (Q9NR97 27-1041): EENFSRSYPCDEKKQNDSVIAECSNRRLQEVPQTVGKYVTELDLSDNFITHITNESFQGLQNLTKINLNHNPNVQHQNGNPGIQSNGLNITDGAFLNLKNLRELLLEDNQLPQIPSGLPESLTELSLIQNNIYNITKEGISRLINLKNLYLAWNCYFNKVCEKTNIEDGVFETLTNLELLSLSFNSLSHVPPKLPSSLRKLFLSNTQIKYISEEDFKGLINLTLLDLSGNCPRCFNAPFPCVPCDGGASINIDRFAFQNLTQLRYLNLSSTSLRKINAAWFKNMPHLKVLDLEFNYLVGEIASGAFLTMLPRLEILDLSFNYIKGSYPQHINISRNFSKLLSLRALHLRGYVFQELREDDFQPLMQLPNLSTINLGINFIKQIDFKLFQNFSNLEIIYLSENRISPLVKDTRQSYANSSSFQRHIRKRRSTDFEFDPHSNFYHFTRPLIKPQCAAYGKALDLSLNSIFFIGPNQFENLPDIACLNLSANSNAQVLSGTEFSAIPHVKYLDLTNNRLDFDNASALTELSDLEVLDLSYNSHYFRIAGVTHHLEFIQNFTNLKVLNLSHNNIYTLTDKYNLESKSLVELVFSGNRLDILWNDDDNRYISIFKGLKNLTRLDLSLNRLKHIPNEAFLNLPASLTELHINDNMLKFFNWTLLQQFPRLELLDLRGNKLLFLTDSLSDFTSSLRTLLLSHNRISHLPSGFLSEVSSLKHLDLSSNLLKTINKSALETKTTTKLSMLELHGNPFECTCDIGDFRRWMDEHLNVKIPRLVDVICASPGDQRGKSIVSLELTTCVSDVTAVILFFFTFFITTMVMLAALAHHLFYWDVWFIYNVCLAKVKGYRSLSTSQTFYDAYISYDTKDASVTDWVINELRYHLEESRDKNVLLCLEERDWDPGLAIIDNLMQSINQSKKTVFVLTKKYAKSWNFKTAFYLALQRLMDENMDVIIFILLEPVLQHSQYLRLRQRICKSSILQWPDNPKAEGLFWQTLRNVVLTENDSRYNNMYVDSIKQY
Assay: HEK293-Blue-hTLR-8 cells assay (SEAP reporter, R848 stimulation)
Format: cell-based
Details: HEK293-Blue-hTLR8 cells, R848, 20 hrs; read-out: HEK/hTLR8 IC50
In short: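 HEK293-Blue hTLR8 cells with NF-κB/AP-1-driven SEAP reporter incubated 20 h at 37 °C with serially diluted compound (1% DMSO) and R848 stimulus (60 μM stock). Supernatant SEAP measured with QUANTI-Blue (2 h, 37 °C) by absorbance at 620–655 nm; antagonism read as reduced reporter signal.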

| SMILES | IC50 [nM] |
| --- | --- |
| Cc1cc(N2Cc3ccc(N4CC5(CNCCO5)C4)nc3[C@@H](C)C2)c2cnn(C)c2n1 [Example 68, 2-[(8S)-6-(1,6-dimethylpyrazolo[3,4-b]pyridin-4-yl)-8-methyl-7,8-dihydro-5H-1,6-naphthyridin-2-yl]-5-oxa-2,8-diazaspiro[3.5]nonane] | 17 |
| CO[C@@H]1CN(c2ccc3c(n2)[C@@H](C)CN(c2cc(C)nc4c2cnn4C)C3)C[C@H]1N [Example 63, (3R,4R)-4-methoxy-1-[(8S)-6-(1,6-dimethylpyrazolo[3,4-b]pyridin-4-yl)-8-methyl-7,8-dihydro-5H-1,6-naphthyridin-2-yl]pyrrolidin-3-amine] | 16 |
| C[C@H]1CN(c2ccnc3c2cnn3C)Cc2ccc(N3C4CCC3CNC4)cc21 [Example 27, (4R)-6-(3,8-diazabicyclo[3.2.1]octan-8-yl)-4-methyl-2-(1-methylpyrazolo[3,4-b]pyridin-4-yl)-3,4-dihydro-1H-isoquinoline] | 3 |
| C[C@H]1CN(c2ccnc3c2cnn3C)Cc2ccc(OC[C@@H]3CNCCN3)cc21 [Example 19, (4R)-4-methyl-2-(1-methylpyrazolo[3,4-b]pyridin-4-yl)-6-[[(2S)-piperazin-2-yl]methoxy]-3,4-dihydro-1H-isoquinoline] | 4 |
| C[C@H]1CN(c2ccnc3c2cnn3C)Cc2ccc(N3C[C@@H]4CNCCN4C3=O)cc21 [Example 25, (8aS)-2-[(4R)-4-methyl-2-(1-methylpyrazolo[3,4-b]pyridin-4-yl)-3,4-dihydro-1H-isoquinolin-6-yl]-1,5,6,7,8,8a-hexahydroimidazo[1,5-a]pyrazin-3-one] | < 0.3 |
| Cc1cc(N2Cc3cnc(N4CCNC5(CC5)C4)cc3[C@@H](C)C2)c2cnn(C)c2n1 [Example 75, (4R)-6-(4,7-diazaspiro[2.5]octan-7-yl)-2-(1,6-dimethylpyrazolo[3,4-b]pyridin-4-yl)-4-methyl-3,4-dihydro-1H-2,7-naphthyridine] | 13 |
| C[C@H]1CN(c2ccnc3c2cnn3C)Cc2ccc(N3C[C@@H]4CCNC[C@@H]4C3=O)cc21 (single isomer, unassigned) [Example 57] | 24 |
| Cc1cc(N2Cc3cnc(OCCN4CCNCC4)cc3[C@@H](C)C2)c2cnn(C)c2n1 [Example 77, (4R)-2-(1,6-dimethylpyrazolo[3,4-b]pyridin-4-yl)-4-methyl-6-(2-piperazin-1-ylethoxy)-3,4-dihydro-1H-2,7-naphthyridine] | 16 |

Source: patent US20240317735A1, “HYDROISOQUINOLINE OR HYDRONAPHTHYRIDINE COMPOUNDS FOR THE TREATMENT OF AUTOIMMUNE DISEASE” (Hoffmann-La Roche Inc., priority 2020, published 2024)
